# Target: T1, KIT(DKIN) (Homo sapiens, UniProt P10721)
# T1 construct: KIT(DKIN); made in house
# Test: Binding constant (Kd) measurement, phage-displayed kinase competition binding assay: KIT(DKIN)
# From the text: The term “ND” represents non-determined values.
# T1 sequence (P10721 589-937 limits assumed): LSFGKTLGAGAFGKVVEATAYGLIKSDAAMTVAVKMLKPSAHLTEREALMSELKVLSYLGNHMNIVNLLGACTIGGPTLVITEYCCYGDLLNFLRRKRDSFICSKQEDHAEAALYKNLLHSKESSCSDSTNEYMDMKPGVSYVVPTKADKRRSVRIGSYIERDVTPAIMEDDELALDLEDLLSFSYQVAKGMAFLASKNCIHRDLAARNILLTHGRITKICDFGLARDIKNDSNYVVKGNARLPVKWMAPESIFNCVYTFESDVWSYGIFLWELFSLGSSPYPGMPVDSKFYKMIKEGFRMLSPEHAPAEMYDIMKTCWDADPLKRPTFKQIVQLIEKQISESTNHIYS
row,Kd [nM],Structure (SMILES)
1,1000 to 10000,CC(C)(C)c1cc(NC(=O)Nc2ccc(OCCN3CCSCC3)cc2)no1 [Compound G53]
2,100 to 1000,CC(C)(C)c1cc(NC(=O)Nc2ccc(NC(=O)c3ccc4cccnc4n3)cc2)no1 [Compound N144]
3,1000 to 10000,CC(C)(C)c1cc(NC(=O)Nc2ccc(NC(=O)c3cnc(Cl)c(Cl)c3)cc2)no1 [Compound N123]
4,< 100,CC(C)(C)c1cc(NC(=O)Nc2ccc(NC(=O)c3ccccc3Cl)cc2)no1 [Compound N23]
5,> 10000,Cn1nc(C(C)(C)C)cc1NC(=O)Nc1cccc([N+](=O)[O-])c1 [Compound D21]
6,100 to 1000,Cc1ccc(CNc2ccc(NC(=O)Nc3cc(C(C)(C)C)on3)cc2)cc1 [Compound O9]
7,100 to 1000,CC(C)(C)c1cc(NC(=O)Nc2ccc(C(=O)Nc3ccc(F)cc3F)cc2)no1 [Compound N153]
8,1000 to 10000,CC(C)(C)c1cc(N2CCCN(c3ccc(OCc4ccccc4)cc3)C2=O)on1 [Compound E2]
9,100 to 1000,Cn1c(SCC(=O)Nc2ccc(NC(=O)Nc3cc(C(C)(C)C)on3)cc2)nnc1-c1cccn(Cc2ccccc2)c1=O [Compound Z47]
10,< 100,CC(C)(C)c1cc(NC(=O)Nc2ccc(OCc3c(F)cccc3F)cc2)no1 [Compound G21]
11,1000 to 10000,O=C(Nc1ccccc1)Nc1ccc(-n2cnc(Cl)c2Cl)cc1 [Compound Z65]
12,100 to 1000,CC(C)(C)c1cc(NC(=O)Nc2ccc(OCc3ccc(OC(F)(F)F)cc3)cc2)no1 [Compound G5]
13,1000 to 10000,CC(C)(C)c1cc(NC(=O)Nc2ccc(-c3nc(-c4cccc5ccccc45)no3)cc2)no1 [Compound P5]
14,100 to 1000,CC(C)(C)c1cc(NC(=O)Nc2ccc(CCc3ccccc3)cc2)no1 [Compound A15]
15,100 to 1000,Cc1ccc(C(=O)Nc2ccc(NC(=O)Nc3cc(C(C)(C)C)on3)cc2)cn1 [Compound N142]
16,100 to 1000,COc1ccc(NC(=O)Nc2cc(C(C)(C)C)no2)cc1 [Compound A30]
17,> 10000,CC1CN(CCOc2ccc(NC(=O)Nc3cc(C(C)(C)C)on3)cc2)CCN1 (stereo not shown) [Compound G46]
18,1000 to 10000,Cc1ccc(S(=O)(=O)Nc2ccc(NC(=O)Nc3cc(C(C)(C)C)on3)cc2)cc1 [Compound V2]
19,100 to 1000,CSc1ncc(Br)c(C(=O)Nc2ccc(NC(=O)Nc3cc(C(C)(C)C)on3)cc2)n1 [Compound N114]
20,< 100,CC(C)(C)c1cc(NC(=O)Nc2ccc(OCc3ccc(F)cc3)cc2)no1 [Compound G35]
21,100 to 1000,O=C(Nc1ccc(Cl)cc1)Nc1ccc(-n2nc(Br)c(Br)c2Br)cc1 [Compound Z49]

row,Kd [nM],Structure (SMILES)
1,< 100,COC(=O)c1ccc(C(=O)Nc2ccc(NC(=O)Nc3cc(C(C)(C)C)on3)cc2)nc1 [Compound N113]
2,> 10000,Cn1nc(C2CC2)cc1NC(=O)Nc1ccc(OCc2ccccc2)cc1 [Compound H7]
3,1000 to 10000,CC(C)(C)c1cc(NC(=O)Nc2ccc(NC(=O)c3ccc(Cl)cc3Cl)cc2)no1 [Compound N130]
4,> 10000,CC(C)(C)c1cc(NC(=O)Nc2ccc(NC(=O)C3CNCCN3)cc2)no1 (stereo not shown) [Compound N152]
5,< 100,Cc1noc(-c2ccc(NC(=O)Nc3cc(C(C)(C)C)on3)cc2)n1 [Compound P9]
6,100 to 1000,CC(C)(C)c1cc(NC(=O)Nc2ccc(OCC(O)CO)cc2)no1 (stereo not shown) [Compound G28]
7,100 to 1000,CC(C)(C)c1cc(NC(=O)Nc2ccc(Oc3ccccc3)cc2)no1 [Compound A24]
8,< 100,CC(C)(C)c1cc(NC(=O)Nc2ccc(OCC3CCC3)cc2)no1 [Compound G39]
9,100 to 1000,CC(C)(C)OC(=O)Nc1ccc(NC(=O)Nc2cc(C(C)(C)C)on2)cc1 [Compound N101]
10,100 to 1000,COc1ccc(NC(=O)Nc2cc(C(F)(F)F)cc(Cl)n2)cc1 [Compound Z71]
11,> 10000,CC(C)(C)c1cc(NC(=O)Nc2ccc(OCCN3CCCCC3)cc2)no1 [Compound G50]
12,100 to 1000,CC(C)(C)c1cc(NC(=O)Nc2ccc(OCc3ccc(C(F)(F)F)cc3)cc2)no1 [Compound G6]
13,< 100,CC(C)(C)c1cc(NC(=O)Nc2ccc(OCc3ccccc3)cc2)no1 [Compound G31]
14,< 100,CC(C)(C)c1cc(NC(=O)Nc2ccc(NC(=O)c3cccc4cccnc34)cc2)no1 [Compound N115]
15,1000 to 10000,CC(C)(C)c1cc(NC(=O)Nc2ccc(NC(=O)C(N)Cc3ccccc3F)cc2)no1 (stereo not shown) [Compound N42]
16,1000 to 10000,CC(C)(C)c1cc(NC(=O)Nc2ccc(NC(=O)c3c4ccccc4nc4ccccc34)cc2)no1 [Compound N148]
17,100 to 1000,C[C@H](NC(=O)c1ccc(NC(=O)Nc2cc(C(C)(C)C)on2)cc1)c1ccccc1 [Compound N88]
18,< 100,CC(C)(C)c1cc(NC(=O)Nc2ccc(CCc3ccc(N)cc3)cc2)no1 [Compound A3]
19,1000 to 10000,CC(C)(C)c1cc(NC(=O)Nc2ccc(NC(=O)c3cccc4c3OCCO4)cc2)no1 [Compound N111]
20,> 10000,Cc1ccc(-n2nc(C(C)(C)C)cc2NC(=O)Nc2ccc(OCc3ccccc3)cc2)cc1 [Compound H5]
21,100 to 1000,CC(C)(C)c1cc(NC(=O)Nc2ccc(C(N)=O)cc2)no1 [Compound N86]

row,Kd [nM],Structure (SMILES)
1,100 to 1000,COc1cccc(-c2ccc(C(=O)Nc3ccc(NC(=O)Nc4cc(C(C)(C)C)on4)cc3)o2)c1 [Compound N105]
2,> 10000,Cc1cc(C)n(C(=O)Nc2ccc(Cl)cc2)n1 [Compound Z52]
3,1000 to 10000,CC(C)(C)c1cc(NC(=O)Nc2ccc(NC(=O)c3cc4cc(Br)ccc4s3)cc2)no1 [Compound N126]
4,100 to 1000,O=C(Nc1ccc(Cl)cc1)Nc1cc(C(F)(F)F)cc(Cl)n1 [Compound Z76]
5,100 to 1000,Cc1ccc(NC(=O)Nc2cc(C(C)(C)C)on2)cc1 [Compound A33]
6,100 to 1000,CCOC(=O)CCc1c(C)[nH]c(C(=O)Nc2ccc(NC(=O)Nc3cc(C(C)(C)C)on3)cc2)c1C [Compound N83]
7,1000 to 10000,O=C(Nc1ccno1)Nc1ccc(Cl)cc1Cl [Compound Z12]
8,1000 to 10000,Cc1nnsc1C(=O)Nc1ccc(NC(=O)Nc2cc(C(C)(C)C)on2)cc1 [Compound N18]
9,1000 to 10000,CC(C)(C)c1cc(NC(=O)Nc2ccc(NC(=O)c3cnc4cc(C(F)(F)F)ccc4c3O)cc2)no1 [Compound N146]
10,< 100,CC(C)(C)c1cc(NC(=O)Nc2ccc(OCCc3ccncc3)cc2)no1 [Compound G22]
11,1000 to 10000,Cc1c(Cl)cccc1NC(=O)Nc1cc(C(C)(C)C)on1 [Compound A5]
12,100 to 1000,CC(C)(C)c1cc(NC(=O)Nc2ccc(OCc3cccc(F)c3)cc2)no1 [Compound G14]
13,> 10000,NC(=O)c1c(NC(=O)Nc2ccc(Cl)c(Cl)c2)sc2c1CCCC2 [Compound Z56]
14,1000 to 10000,CC(C)(C)c1cc(NC(=O)Nc2ccc(NC(=O)C3CCCCC3)cc2)no1 [Compound N91]
15,> 10000,Cn1nc(-c2ccccc2)c(C(=O)Cc2ccc(NC(=O)Nc3cc(C(C)(C)C)on3)cc2)c1Cl [Compound N11]
16,1000 to 10000,Cc1ccc(-n2nc(C(C)(C)C)cc2NC(=O)Nc2ccc(Cl)cc2)cc1 [Compound H14]
17,100 to 1000,CC(C)(C)c1cc(NC(=O)Nc2ccc(NC(=O)c3cccc4nsnc34)cc2)no1 [Compound N109]
18,1000 to 10000,CC(C)(C)c1cc(NC(=O)Nc2ccc(NC(=O)c3ncccc3C(N)=O)cc2)no1 [Compound N6]
19,< 100,CC(C)(C)c1cc(NC(=O)Nc2ccc(NC(=O)c3cccc4nsnc34)cc2)no1 [Compound N21]
